Legend:
[1] = molecular target: T1, recombinant Trypanosome AOX (TAO) enzyme (Trypanosoma brucei brucei, UniProt Q26710); experiment: TAO enzyme inhibition (quinol oxidase activity, ubiquinol-1 substrate); format: biochemical, T. brucei brucei; settings: TAO-expressing E. coli membrane fraction, 25° C., ubiquinol-1, absorbance at 278 nm
T1 construct: made in house; host or cells: Escherichia coli (membrane fraction)
Experimental: Escherichia coli membrane fractions that express TAO by a plasmid harboring TAO cDNA cloned from T. brucei brucei (Fukai, Comparative Biochemistry & Physiology, 124, 141-148, 1999) were used as a recombinant Trypanosome AOX (TAO) enzyme. 50 mM Tris-HCl (pH 7.5), TAO-expressing membrane fraction (0.35 ng), and […] of an inhibitor were mixed in a 1 mL cuvette, and the mixture was incubated at 25° C. for 4 minutes. Ubiquinol-1 as a substrate was then added to the mixture to initiated the reaction, and change in absorbance at 278 nm was monitored (Shimadzu UV-3000, molar absorption coefficient ε=15 cm^−1 mM^−1).

[2] = test system: T. b. rhodesiense IL1501; experiment: Antiprotozoal effect, MIC measurement in HMI-9 culture; format: cell-based; settings: bloodstream forms, 18 + 6 hours culture
Experimental: T. b. rhodesiense IL1501, the human infectious protozoan that causes acute symptoms, was used as a Trypanosomatid protozoan. The bloodstream forms of protozoan can be cultured in a HMI-9 culture medium (Hirumi, 1989). The protozoan was always cultured at a temperature of 37° C. in the presence of 5% CO2.
In a microtiter plate (96-well, FALCON 3072), HMI-9 culture medium and HMI-9 culture medium plus glycerol added to make a final concentration of 8.33 mM are separately prepared. 89 μL of the preparation are put into only the first well, and a 60 μL aliquot of each the other wells. 1 μL of a solution of AF or a AF derivative dissolved in DMSO was added to the first well, and was then suspended. A 30 μL aliquot of the suspension was then collected, was transferred to the second well, and was suspended. These operations were repeated in this order to prepare a three-fold dilution series of drug. A 40 μL aliquot of a protozoan culture was added to each well to make a final concentration of 5×10^4 cells/well (a final concentration of glycerol of 5 mM) followed by 18-hours culturing under conditions of 37° C. and 5% CO2. (For EC50 measurement, a 10 μL aliquot of Alamar Blue was added to each well), culturing was carried out under the same conditions for 6 more hours, surviving protozoans were visually observed with a microscope. The concentration at which no motile surviving protozoan was observed was defined as MIC.

[3] = Trypanosoma brucei, RHODESIENSE, 24 h, Glycerol (+), final concentration of glycerol of 5 mM
[4] = Trypanosoma brucei, RHODESIENSE, 24 h, Glycerol (−)

T1 sequence (Q26710 whole entry): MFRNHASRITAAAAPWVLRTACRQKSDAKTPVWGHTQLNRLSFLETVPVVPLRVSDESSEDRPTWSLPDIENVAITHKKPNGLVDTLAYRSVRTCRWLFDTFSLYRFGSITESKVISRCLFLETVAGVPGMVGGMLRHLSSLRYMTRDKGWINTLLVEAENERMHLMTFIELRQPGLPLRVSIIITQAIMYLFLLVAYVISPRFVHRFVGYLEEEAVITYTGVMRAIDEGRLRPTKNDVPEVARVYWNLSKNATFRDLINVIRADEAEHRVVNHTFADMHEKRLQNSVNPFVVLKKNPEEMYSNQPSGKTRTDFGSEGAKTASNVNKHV

Structure (SMILES) | IC50 [1] [nM] | also measured
COC(=O)CCCCCCC/C=C/c1c(O)c(Cl)c(C)c(C=O)c1O [Compound 200-12-COOMe, (E)-Methyl 10-(3-chloro-5-formyl-2,6-dihydroxy-4-methylphenyl)-10-decenoate] | 0.5 | MIC [2, 3]: 33 nM; MIC [2, 4]: 120 nM
CCCCC/C(C)=C/Cc1c(O)c(Cl)c(C)c(C=O)c1O [Compound 264-8, (E)-3-Chloro-4,6-dihydroxy-2-methyl-5-(3-methyl-2-octenyl)benzaldehyde] | 0.06 | MIC [2, 3]: 0.002 nM; MIC [2, 4]: 0.18 nM
CC(=O)c1c(C)c(Cl)c(O)c(C/C=C(\C)CC/C=C(\C)C2CC(=O)C(C)(C)O2)c1O (stereo not drawn) [Compound 214, 5-Chloro-2,4-dihydroxy-6-methyl-3-[(2E,6E)-7-(5,5-dimethyl-4-oxotetrahydrohuran-2-yl)-3,7-dimethyl-2,6-heptadienyl]acetophenone] | 0.3 | 
CC(=O)c1c(C)c(Cl)c(O)c(C/C=C(\C)CC/C=C(\C)C(C)O)c1O (stereo not drawn) [Compound 286-9-OH, (2E,6E)-3-Chloro-4,6-dihydroxy-2-methyl-5-(8-hydroxy-3′,7′-dimethyl-2′,6′-nonadienyl)acetophenone] | 7.1 | 
Cc1c(Cl)c(O)c(CCC(C)CCCCCOC(=O)C(C)(C)C)c(O)c1C=O (stereo not drawn) [Compound 290-12-OPiv, 8-(3-Chloro-5-formyl-2,6-dihydroxy-4-methylphenyl)-6-methyloctyl pivalate] | 0.3 | 
C/C(=C\COC(=O)C(C)(C)C)CC/C(C)=C/Cc1c(O)c(Cl)c(C)c(C=O)c1O [Compound 287-12-OPiv, (2E,6E)-8-(3-Chloro-5-formyl-2,6-dihydroxy-4-methylphenyl)-3,6-dimethyl-2,6-octadienyl pivalate] | 0.36 | 
C/C(=C\CC/C=C/Cc1c(O)c(Cl)c(C)c(C=O)c1O)COC(=O)C(C)(C)C [Compound 278-12-OPiv, (2E,6E)-8-(3-Chloro-5-formyl-2,6-dihydroxy-4-methylphenyl)-2-methyl-2,6-octadienyl pivalate] | 0.26 | 
Cc1c(Cl)c(O)c(/C=C/CCCCCCOC(=O)C(C)C)c(O)c1C=O [Compound 200-12-OCOiPr, (E)-8-(3-Chloro-5-formyl-2,6-dihydroxy-4-methylphenyl)-7-octenyl isobutylate] | 0.75 | 
CC(C)=CCC/C(C)=C/Cc1c(O)cc(C)c(C=O)c1O [Compound 216, (E)-2,4-Dihydroxy-3-(3,7-dimethyl-2,6-octadienyl)-6-methylbenzaldehyde] |  | melting point: 120 to 121 °C
CCOC(=O)CCCCCCCCCc1c(O)c(Cl)c(C)c(C=O)c1O [Compound 215-13-COOEt, Ethyl 10-(3-chloro-5-formyl-2,6-dihydroxy-4-methylphenyl)decanoate] | 0.2 | MIC [2, 3]: 2 nM; MIC [2, 4]: 24 nM
CC(=O)c1cc(Cl)c(O)c(CCCCCCCOC(=O)C(C)(C)C)c1O [Compound 178-11-OPiv, 7-(3-Acetyl-5-chloro-2,6-dihydroxyphenyl)heptyl pivalate] |  | melting point: 48 °C
CCOC(=O)CCCCCCCc1c(O)c(Cl)c(C)c(C=O)c1O [Compound 215-11-COOEt, Ethyl 8-(3-chloro-5-formyl-2,6-dihydroxy-4-methylphenyl)octanoate] | 0.5 | MIC [2, 3]: 8.5 nM; MIC [2, 4]: 48 nM
C/C(=C\Cc1c(O)c(Cl)c(C)c(C=O)c1O)CC/C=C/COC(=O)C(C)(C)C [Compound 289-12-OPiv, (2E,6E)-8-(3-Chloro-5-formyl-2,6-dihydroxy-4-methylphenyl)-6-methyl-2,6-octadienyl pivalate] | 0.2 | 
COC(=O)c1ccc(O)c(C/C=C(\C)CCC=C(C)C)c1O [Compound 161, Methyl (E)-3-(3,7-Dimethyl-2,6-octadienyl)-2,4-dihydroxybenzoate] |  | melting point: 62 °C
CCCCCC(C)CCc1c(O)c(Cl)c(C)c(C(C)=O)c1O (stereo not drawn) [Compound 269-8, 3-Chloro-4,6-dihydroxy-2-methyl-5-(3-methyloctyl)acetophenone] | 2.5 | MIC ([2]; Glycerol (+), final concentration of glycerol of 5 mM): 70 nM; MIC ([2]; Glycerol (−)): 500 nM
Cc1c(Cl)c(O)c(/C=C/CCCCCC2CC(=O)C(C)(C)O2)c(O)c1C=O (stereo not drawn) [Compound 249, 3-Chloro-4,6-dihydroxy-2-methyl-5-[(E)-7-(5,5-dimethyl-4-oxo-tetrahydrofuran-2-yl)-1-heptenyl]benzaldehyde] | 1 | MIC [2, 3]: 18 nM; MIC [2, 4]: 74 nM

Structure (SMILES) | IC50 [1] [nM] | also measured
COC(C)(C)CCC/C(C)=C/Cc1c(O)c(Cl)c(C)c(C=O)c1O [Compound 231-9-OMe, 3-Chloro-4,6-dihydroxy-5-[(E)-7-methoxy-3,7-dimethyl-2-octeny]-2-methylbenzaldehyde] | 0.29 | 
COC(=O)c1cc(Cl)c(O)c(C/C=C(\C)CCC=C(C)C)c1O |  | melting point: 71 °C
Cc1c(Cl)c(O)c(CCCCCCCC(=O)O)c(O)c1C=O [Compound 215-9-COOH, 8-(3-Chloro-5-formyl-2,6-dihydroxy-4-methylphenyl)octanoic acid] |  | melting point: 149 to 150 °C
CC(=O)c1c(C)c(Cl)c(O)c(C/C=C(\C)CC/C=C(\C)COC(=O)C(C)(C)C)c1O [Compound 175-12-OPiv, (2E,6E)-8-(5-Acetyl-3-chloro-2,6-dihydroxy-4-methylphenyl)-2,6-dimethyl-2,6-octadienyl pivalate] | 0.7 | MIC [2, 3]: 1.4 nM; MIC [2, 4]: 10 nM
Cc1c(Cl)c(O)c(/C=C/CCCCCOC(=O)C(C)(C)C)c(O)c1C=O [Compound 200-11-OPiv, (E)-7-(3-Chloro-5-formyl-2,6-dihydroxy-4-methylphenyl)-6-heptenyl pivalate] | 0.53 | MIC [2, 3]: 0.8 nM; MIC [2, 4]: 22 nM
Cc1c(Cl)c(O)c(CCCCCCC(C)COC(=O)C(C)(C)C)c(O)c1C=O (stereo not drawn) [Compound 279-12-OPiv, 8-(3-Chloro-5-formyl-2,6-dihydroxy-4-methylphenyl)-2-methyloctyl pivalate] | 0.41 | 
Cc1c(Cl)c(O)c(C/C=C/CCCC/C=C/C(=O)C(C)(C)C)c(O)c1C=O [Compound 288-12-Piv, 3-Chloro-4,6-dihydroxy-5-((E,E)-11,11-dimethyl-10-oxo-2,8-dodecadienyl)-2-methylbenzaldehyde] | 0.74 | 
CCCCC/C(C)=C/COc1cc(O)c(C(C)=O)c(C)c1Cl [Compound 270-8, (E)-3-Chloro-6-hydroxy-2-methyl-(3-methyl-2-octenoxy)acetophenone] | 300 | MIC [2, 3]: 3700 nM; MIC [2, 4]: 9200 nM
CC(=O)c1c(C)c(Cl)c(O)c(CCCCCCCOC(=O)C(C)(C)C)c1O [Compound 172-11-OPiv, 7-(3-Acetyl-5-chloro-2,6-dihydroxy-4-methylphenyl)heptyl pivalate] | 8 | MIC [2, 3]: 19 nM; MIC [2, 4]: 540 nM
C/C(=C\Cc1c(O)c(Cl)c(C)c(CO)c1O)CC/C=C(\C)COC(=O)C(C)(C)C [Compound 503-OPiv, (2E,6E)-8-(3-Chloro-2,6-dihydroxy-5-hydroxymethyl-4-methylphenyl)-2,6-dimethyl-2,6-octadienyl pivalate] | 0.3 | 
C/C(=C\COC(=O)C(C)C)CC/C(C)=C/Cc1c(O)c(Cl)c(C)c(C=O)c1O [Compound 287-12-OCOiPr, (2E,6E)-8-(3-Chloro-5-formyl-2,6-dihydroxy-4-methylphenyl)-3,6-dimethyl-2,6-octadienyl isobutylate] | 0.26 | 
C/C(=C\Cc1c(O)c(Cl)c(C)c(C=O)c1O)CC/C=C(\C)COC1CCCCO1 (stereo not drawn) [Compound 236-13-OTHP, 3-Chloro-5-[(2E,6E)-3,7-dimethyl-8-(tetrahydropyran-2-yloxy)-2,6-octadienyl]-4,6-dihydroxy-2-methylbenzaldehyde] | 0.2 | 
Cc1c(Cl)c(O)c(CCCCCCCCCOC(=O)C(C)C)c(O)c1C=O [Compound 215-13-OCOiPr, 9-(3-Chloro-5-formyl-2,6-dihydroxy-4-methylphenyl)nonyl isobutylate] | 0.3 | 
Cc1c(Cl)c(O)c(CCCCCCCCCC(=O)C(C)(C)C)c(O)c1C=O [Compound 215-12-Piv, 3-Chloro-4,6-dihydroxy-5-(11,11-dimethyl-10-oxo-dodecyl)-2-methylbenzaldehyde] | 0.4 | 
C/C(=C\Cc1c(O)c(Cl)c(C)c(C=O)c1O)CCCCOC(=O)C(C)(C)C [Compound 264-11-OPiv, (5E)-7-(3-Chloro-5-formyl-2,6-dihydroxy-4-methylphenyl)-5-methyl-5-heptenyl pivalate] | 0.22 | 

— patent publication US9440913B2, “Dihydroxybenzene derivatives and antiprotozoal agent comprising same as active ingredient” (NAI INC., priority 2010, dated 2016)
